Where two headings read alike, the source gives them in different places.
Legend:
Type in all cases: cell-based, Human
[1] = test system: cancer cells (all tumor cell lines tested); test: Cell viability assay (MTT), summary over the cancer cell lines tested; settings: for PI values, mean over cancer cells / PI values, median over cancer cells: dark vs blue light 458 nm
Method: Cells were grown in humidified incubators at 37° C. in 5% CO2. Murine MC3T3 osteoblast and NIH-3T3 fibroblast cells-used as non-tumor cell models-were cultured in a-MEM medium and DMEM medium supplemented with 10% fetal bovine serum (FBS) and 1% Penicillin/Streptomycin (P/S) antibiotics, respectively. Human T24 bladder, MGHU3 bladder, Scaber bladder, A549 lung, MCF7 breast, MiaPaCa2 pancreas cancer cells were cultured in DMEM medium supplemented with 10% FBS and 1% P/S antibiotics. […] Human Hela cervix and HepG2 liver cancer cells were cultured EMEM medium supplemented with 10% FBS and 1% P/S antibiotics.
MTT reagent (3-(4,5-dimethylthiazol-2-yl)-2,5-diphenyltetrazolium bromide) was used to determine cell death as originally described by Mosmann. Briefly, cells were seeded from 5,000 to 10,000 cells/well in 24-well plates (1 mL) depending on the cell type and allowed to attach overnight. The complexes were prepared in DMSO. The concentration of the complexes was calculated based on the elemental composition of the complexes determined by the elemental analyses. All cell viability experiments were carried out with a fixed concentration of 0.1% (v/v) DMSO. After 72 h of treatment, cells were incubated at 37° C. and 5% CO2 with 25 μL of MTT solution (5 mg/ml; Sigma-Aldrich) in 24-well plates for 3 to 4 h. After solubilization with 500 μL of DMSO, formazan was quantified spectrophotometrically with a microplate reader at 570 nm absorbance (ClarioSTAR, BMG LabTech). […] All the results were calculated from data obtained in at least three independent experiments performed in triplicate.
Two sets of experiments were conducted in parallel for each complex to be studied:
1. The cells were incubated with the different complexes (in the dark) for 72 h.
2. The cells were incubated for 8 h with the different complexes (in the dark), then irradiated for 10 min, followed by an incubation in the dark up to 72 h.

Hela cervix cancer cells = test: Cell viability assay (MTT), dark and blue light; settings: for Photosensitizing index (PI) HeLa: dark vs blue light 458 nm
Outline: (§1)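 Readout after 72 h: MTT reduction at 570 nm. Light condition: 8 h dark loading, 10 min irradiation at 458 nm (LEDs, 9.6 W), dark to 72 h; control condition kept dark for the full 72 h.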

[2] = test system: MGHU3 bladder cancer cells; test: Cell viability assay (MTT), dark and blue light; settings: for SI (vs MC3T3) MGHU3 Blue / SI (vs NIH-3T3) MGHU3 Blue: blue light 458 nm; for Photosensitizing index (PI) MGHU3: dark vs blue light 458 nm
Outline: as §1

[3] = test system: Scaber bladder cancer cells; test: Cell viability assay (MTT), dark and blue light; settings: for Photosensitizing index (PI) Scaber: dark vs blue light 458 nm
Outline: as §1

MCF7 breast cancer cells = test: Cell viability assay (MTT), dark and blue light; settings: for SI (vs NIH-3T3) MCF7 Blue: blue light 458 nm; for Photosensitizing index (PI) MCF7: dark vs blue light 458 nm
Outline: as §1

A549 lung cancer cells = test: Cell viability assay (MTT), dark and blue light; settings: for Photosensitizing index (PI) A549: dark vs blue light 458 nm
Outline: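 Tumor lines and non-tumor murine MC3T3 osteoblasts and NIH-3T3 fibroblasts were seeded overnight and treated with complexes at 0.1% (v/v) DMSO for 72 h. Light samples were irradiated 10 min after 8 h of dark incubation. Viability was measured by MTT absorbance at 570 nm.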

[4] = 8 h in the dark, blue light 458 nm 10 min, then dark up to 72 h, read-out: GI50 HeLa Blue
[5] = in the dark, 72 h, read-out: GI50 HeLa Dark
[6] = 8 h in the dark, blue light 458 nm 10 min, then dark up to 72 h, read-out: GI50 MGHU3 Blue
[7] = in the dark, 72 h, read-out: GI50 MGHU3 Dark
[8] = 8 h in the dark, blue light 458 nm 10 min, then dark up to 72 h, read-out: GI50 Scaber Blue
[9] = in the dark, 72 h, read-out: GI50 Scaber Dark
[10] = 8 h in the dark, blue light 458 nm 10 min, then dark up to 72 h, read-out: GI50 MCF7 Blue
[11] = in the dark, 72 h, read-out: GI50 MCF7 Dark
[12] = 8 h in the dark, blue light 458 nm 10 min, then dark up to 72 h, read-out: GI50 A549 Blue
[13] = in the dark, 72 h, read-out: GI50 A549 Dark

SMILES	PI values, mean over cancer cells [1] [fold]	PI values, median over cancer cells [1] [fold]	GI50 (Hela cervix cancer cells; [4]) [µM]	SI (vs NIH-3T3) HeLa Dark (Hela cervix cancer cells; dark)	Photosensitizing index (PI) HeLa (Hela cervix cancer cells)	GI50 (Hela cervix cancer cells; [5]) [µM]	GI50 [2, 6] [µM]	SI (vs MC3T3) MGHU3 Blue [2]	SI (vs NIH-3T3) MGHU3 Blue [2]	Photosensitizing index (PI) MGHU3 [2]	GI50 [2, 7] [µM]	GI50 [3, 8] [µM]	SI (vs MC3T3) Scaber Dark [3]	SI (vs NIH-3T3) Scaber Dark [3]	Photosensitizing index (PI) Scaber [3]	GI50 [3, 9] [µM]	GI50 (MCF7 breast cancer cells; [10]) [µM]	SI (vs NIH-3T3) MCF7 Blue (MCF7 breast cancer cells)	SI (vs MC3T3) MCF7 Dark (MCF7 breast cancer cells; dark)	Photosensitizing index (PI) MCF7 (MCF7 breast cancer cells)	further results
F[P-](F)(F)(F)(F)F.O=C(CCCC[C@@H]1SC[C@@H]2NC(=O)N[C@@H]21)NCCCn1cc[n+]2[c]1[Ir-3]13([c]4ccccc4-c4sc5ccccc5[n+]41)([c]1ccccc1-c1sc4ccccc4[n+]13)[n+]1ccccc1-2 [I-k]	12.9	12.2	6.5	1.5	7.8	50.6	2.9	6.8	10.7	15.9	46.1	1.8	1.0	2.9	14.4	25.9	1.5	20.7	1.7	9.9	selectivity for cancer cells over non-tumor cells, in words [1]: most selective effects under irradiated conditions; GI50 values, range over tumor cell lines, dark ([1]; in the dark): little toxicity against tumor cells under dark conditions; SI (vs MC3T3) Scaber Blue ([3]; blue light 458 nm): 10.7; SI (vs NIH-3T3) Scaber Blue ([3]; blue light 458 nm): 17.3; GI50 (MCF7 breast cancer cells; [11]): 14.9 µM; GI50 (A549 lung cancer cells; [12]): 1.2 µM; SI (vs MC3T3) A549 Dark (A549 lung cancer cells; dark): 2.1; Photosensitizing index (PI) A549 (A549 lung cancer cells): 10.2; GI50 (A549 lung cancer cells; [13]): 12.2 µM
COC(=O)c1ccc2[n+](c1)[Ir-3]13([c]4ccccc4-2)([c]2ccccc2-c2ccc(C(=O)OC)c[n+]21)[c]1n(CCCNC(=O)CCCC[C@@H]2SC[C@@H]4NC(=O)N[C@@H]42)cc[n+]1-c1cccc[n+]13.F[P-](F)(F)(F)(F)F [I-e]	8.4	6.2	59	>1.1	3.7	221	17.8	2.3	7.8	>5.6	> 100	14.7	<1	>2.5	>6.8	> 100	12.2	11.1	0.4	11.9	SI (vs MC3T3) HeLa Blue (Hela cervix cancer cells; blue light 458 nm): 0.7; SI (vs MC3T3) HeLa Dark (Hela cervix cancer cells; dark): 0.3; SI (vs MC3T3) MGHU3 Dark ([2]; dark): <1; SI (vs NIH-3T3) MGHU3 Dark ([2]; dark): >2.5; SI (vs NIH-3T3) MCF7 Dark (MCF7 breast cancer cells; dark): >1.7; GI50 (MCF7 breast cancer cells; [11]): 145 µM; GI50 (A549 lung cancer cells; [12]): 21.6 µM; SI (vs NIH-3T3) A549 Blue (A549 lung cancer cells; blue light 458 nm): 6.3; SI (vs NIH-3T3) A549 Dark (A549 lung cancer cells; dark): >2.3; Photosensitizing index (PI) A549 (A549 lung cancer cells): 5.0; GI50 (A549 lung cancer cells; [13]): 107 µM
